Like-named read-outs stand apart in the source and are kept apart here.
Columns and labels:
alt-NHEJ [1] = conditions: ratio; Supplementary Table 2
EJ-DR U2OS cells = assay: Cytotoxicity in the absence of DSB ligands (CT), Hoechst cell count; format: cell-based, human; conditions: Supplementary Table 2, mean ± SEM of four technical replicates
HR = assay: EJ-DR 384-well imaging assay, HR (GFP) readout; conditions: read-out: HR IC50
alt-NHEJ [2] = assay: EJ-DR 384-well imaging assay, alt-NHEJ (RFP) readout; conditions: for Selectivity Index (HR IC50/alt-NHEJ IC50) / selectivity index SI (CT IC50/alt-NHEJ IC50): ratio; for Selectivity Index (HR IC50/alt-NHEJ IC50): Supplementary Table 2
T type Cav 3.3 = biological target: T1, T type Cav 3.3 (Homo sapiens, UniProt Q9P0X4); assay: Calcium channel blocking study, T-type Cav3.3; format: cell-based; conditions: HEK293 cells stably expressing the channel
T1 construct: host or cells: HEK293

T type Cav 3.2 = biological target: T2, T type Cav 3.2 (Homo sapiens, UniProt O95180); assay: Calcium channel blocking study, T-type Cav3.2; format: cell-based; conditions: HEK293 cells stably expressing the channel
T2 construct: host or cells: HEK293

[3] = In vivo pharmacokinetic study, brain tissue; conditions: oral 30 mg/kg, female athymic nude mice
Experimental: (§1) These measurements were used to calculate various pharmacokinetic parameters critical to bioavailability including time to reach maximum concentration (tmax), maximum concentration achieved (Cmax), and half-life (t1/2) (Figure 5C, 5D, Supplementary Table 1).
(§2) Compound concentrations were measured at these time-points using Liquid Chromatography with tandem mass spectrometry (LC-MS-MS). Pharmacokinetic studies were performed by orally dosing test compounds at 30 mg/kg dissolved in 50% PEG400 and 50% water in female athymic nude mice. Plasma and brain tissue concentration were measured using mass spectrometry (MS).

[4] = Cytotoxicity in the absence of DSB ligands (CT), Hoechst cell count; format: cell-based, human; conditions: human, EJ-DR U2OS cells, no DSB ligands
L type Cav 1.2 = biological target: T3, L type Cav 1.2 (Homo sapiens, UniProt Q13936); assay: Calcium channel blocking study, L-type; format: cell-based; conditions: CHO cells stably expressing the channel
T3 construct: host or cells: CHO

T type Cav 3.1 = biological target: T4, T type Cav 3.1 (Homo sapiens, UniProt O43497); assay: Calcium channel blocking study, T-type Cav3.1; format: cell-based; conditions: HEK293 cells stably expressing the channel
T4 construct: host or cells: HEK293

Human hERG (Kv11.1) = biological target: T5, Human hERG (Kv11.1) (Homo sapiens, UniProt Q12809); assay: Automated hERG inhibition patch clamp assay; format: cell-based
T5 construct: host or cells: CHO-K1
Experimental: Automated whole cell voltage clamp hERG inhibition assays were performed in Human hERG (Kv11.1) expressed in CHO-K1 cells optimized for automated patch clamp studies by Sophion Bioscience A/S [47].

[5] = In vivo pharmacokinetic study, plasma
Experimental: as §1, §2

CYP2D6 = biological target: T6, CYP2D6 (Homo sapiens, UniProt P10635); assay: Cytochrome P450 inhibition assay in human liver microsomes, CYP2D6; format: in vitro ADME; conditions: human liver microsomes
T6 construct: tissue Eurofins Scientific; host or cells: human liver microsomes
Experimental: (§3) CYP inhibition assays were performed by Eurofins Scientific. Test compounds were incubated with human liver microsomes, followed by compound detection using high performance liquid chromatography with tandem mass spectrometry (HPLC-MS/MS).

CYP3A4 = biological target: T7, CYP3A4 (Homo sapiens, UniProt P08684); assay: Cytochrome P450 inhibition assay in human liver microsomes, CYP3A4; format: in vitro ADME; conditions: human liver microsomes
T7 construct: tissue Eurofins Scientific; host or cells: human liver microsomes
Experimental: as §3

[6] = Homo sapiens, read-out: alt-NHEJ IC50
[7] = Homo sapiens, U2OS, read-out: alt-NHEJ IC50
[8] = oral 30 mg/kg, female athymic nude mice

T7 sequence (P08684 whole entry): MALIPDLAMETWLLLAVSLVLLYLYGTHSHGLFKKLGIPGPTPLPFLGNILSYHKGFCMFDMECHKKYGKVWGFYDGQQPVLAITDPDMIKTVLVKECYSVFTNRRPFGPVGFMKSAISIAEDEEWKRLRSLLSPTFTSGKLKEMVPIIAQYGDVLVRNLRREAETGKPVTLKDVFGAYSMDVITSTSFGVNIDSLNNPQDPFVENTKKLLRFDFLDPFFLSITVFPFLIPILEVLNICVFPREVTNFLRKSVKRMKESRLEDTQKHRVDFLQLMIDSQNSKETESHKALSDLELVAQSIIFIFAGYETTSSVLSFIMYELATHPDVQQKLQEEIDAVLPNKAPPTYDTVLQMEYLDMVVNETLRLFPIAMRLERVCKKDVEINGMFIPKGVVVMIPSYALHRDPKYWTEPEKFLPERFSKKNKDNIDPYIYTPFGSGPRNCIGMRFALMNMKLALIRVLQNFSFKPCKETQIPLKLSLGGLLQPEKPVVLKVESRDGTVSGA
T6 sequence (P10635 whole entry): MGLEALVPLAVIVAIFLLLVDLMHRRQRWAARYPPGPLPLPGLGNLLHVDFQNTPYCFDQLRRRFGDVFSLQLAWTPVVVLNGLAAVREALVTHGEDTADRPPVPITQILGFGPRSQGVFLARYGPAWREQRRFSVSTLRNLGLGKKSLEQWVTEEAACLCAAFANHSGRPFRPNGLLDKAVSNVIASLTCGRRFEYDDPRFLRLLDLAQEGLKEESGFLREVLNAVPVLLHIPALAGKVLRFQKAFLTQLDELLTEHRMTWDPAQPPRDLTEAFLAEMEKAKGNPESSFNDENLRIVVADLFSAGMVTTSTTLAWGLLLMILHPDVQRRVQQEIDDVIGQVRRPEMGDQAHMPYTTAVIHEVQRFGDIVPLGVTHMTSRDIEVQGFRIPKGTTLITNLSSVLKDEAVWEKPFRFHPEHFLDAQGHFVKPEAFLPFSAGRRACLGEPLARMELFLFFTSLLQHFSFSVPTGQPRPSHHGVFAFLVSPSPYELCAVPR
T5 sequence (Q12809 whole entry): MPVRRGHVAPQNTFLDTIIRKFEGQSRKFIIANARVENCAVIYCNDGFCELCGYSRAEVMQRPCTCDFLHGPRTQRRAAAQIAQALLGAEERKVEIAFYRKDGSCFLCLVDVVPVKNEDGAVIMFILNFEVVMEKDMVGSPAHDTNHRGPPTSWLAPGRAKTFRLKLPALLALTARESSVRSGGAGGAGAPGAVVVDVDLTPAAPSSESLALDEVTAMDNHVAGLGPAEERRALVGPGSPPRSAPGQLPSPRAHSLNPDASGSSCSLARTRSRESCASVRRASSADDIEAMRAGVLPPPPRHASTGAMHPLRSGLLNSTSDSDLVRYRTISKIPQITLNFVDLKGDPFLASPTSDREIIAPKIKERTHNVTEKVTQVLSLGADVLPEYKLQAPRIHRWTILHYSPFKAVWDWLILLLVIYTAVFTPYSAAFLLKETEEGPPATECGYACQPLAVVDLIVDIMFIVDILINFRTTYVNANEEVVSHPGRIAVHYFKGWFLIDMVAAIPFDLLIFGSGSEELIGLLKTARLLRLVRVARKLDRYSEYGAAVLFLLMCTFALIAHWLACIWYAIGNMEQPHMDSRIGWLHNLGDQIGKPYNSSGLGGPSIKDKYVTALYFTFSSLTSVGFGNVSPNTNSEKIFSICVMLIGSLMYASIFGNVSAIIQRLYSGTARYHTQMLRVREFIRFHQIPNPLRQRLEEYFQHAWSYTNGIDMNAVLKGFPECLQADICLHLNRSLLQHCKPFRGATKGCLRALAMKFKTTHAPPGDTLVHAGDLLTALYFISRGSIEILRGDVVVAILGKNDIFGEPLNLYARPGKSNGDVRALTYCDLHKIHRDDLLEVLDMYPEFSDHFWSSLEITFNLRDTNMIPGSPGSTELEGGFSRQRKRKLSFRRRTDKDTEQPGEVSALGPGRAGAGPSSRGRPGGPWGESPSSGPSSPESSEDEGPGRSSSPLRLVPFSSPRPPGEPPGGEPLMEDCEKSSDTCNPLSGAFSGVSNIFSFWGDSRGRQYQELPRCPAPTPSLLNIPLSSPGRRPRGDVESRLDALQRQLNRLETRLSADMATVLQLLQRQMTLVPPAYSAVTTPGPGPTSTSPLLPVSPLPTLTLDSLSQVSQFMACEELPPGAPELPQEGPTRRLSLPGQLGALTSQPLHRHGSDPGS
T4 sequence (O43497 whole entry): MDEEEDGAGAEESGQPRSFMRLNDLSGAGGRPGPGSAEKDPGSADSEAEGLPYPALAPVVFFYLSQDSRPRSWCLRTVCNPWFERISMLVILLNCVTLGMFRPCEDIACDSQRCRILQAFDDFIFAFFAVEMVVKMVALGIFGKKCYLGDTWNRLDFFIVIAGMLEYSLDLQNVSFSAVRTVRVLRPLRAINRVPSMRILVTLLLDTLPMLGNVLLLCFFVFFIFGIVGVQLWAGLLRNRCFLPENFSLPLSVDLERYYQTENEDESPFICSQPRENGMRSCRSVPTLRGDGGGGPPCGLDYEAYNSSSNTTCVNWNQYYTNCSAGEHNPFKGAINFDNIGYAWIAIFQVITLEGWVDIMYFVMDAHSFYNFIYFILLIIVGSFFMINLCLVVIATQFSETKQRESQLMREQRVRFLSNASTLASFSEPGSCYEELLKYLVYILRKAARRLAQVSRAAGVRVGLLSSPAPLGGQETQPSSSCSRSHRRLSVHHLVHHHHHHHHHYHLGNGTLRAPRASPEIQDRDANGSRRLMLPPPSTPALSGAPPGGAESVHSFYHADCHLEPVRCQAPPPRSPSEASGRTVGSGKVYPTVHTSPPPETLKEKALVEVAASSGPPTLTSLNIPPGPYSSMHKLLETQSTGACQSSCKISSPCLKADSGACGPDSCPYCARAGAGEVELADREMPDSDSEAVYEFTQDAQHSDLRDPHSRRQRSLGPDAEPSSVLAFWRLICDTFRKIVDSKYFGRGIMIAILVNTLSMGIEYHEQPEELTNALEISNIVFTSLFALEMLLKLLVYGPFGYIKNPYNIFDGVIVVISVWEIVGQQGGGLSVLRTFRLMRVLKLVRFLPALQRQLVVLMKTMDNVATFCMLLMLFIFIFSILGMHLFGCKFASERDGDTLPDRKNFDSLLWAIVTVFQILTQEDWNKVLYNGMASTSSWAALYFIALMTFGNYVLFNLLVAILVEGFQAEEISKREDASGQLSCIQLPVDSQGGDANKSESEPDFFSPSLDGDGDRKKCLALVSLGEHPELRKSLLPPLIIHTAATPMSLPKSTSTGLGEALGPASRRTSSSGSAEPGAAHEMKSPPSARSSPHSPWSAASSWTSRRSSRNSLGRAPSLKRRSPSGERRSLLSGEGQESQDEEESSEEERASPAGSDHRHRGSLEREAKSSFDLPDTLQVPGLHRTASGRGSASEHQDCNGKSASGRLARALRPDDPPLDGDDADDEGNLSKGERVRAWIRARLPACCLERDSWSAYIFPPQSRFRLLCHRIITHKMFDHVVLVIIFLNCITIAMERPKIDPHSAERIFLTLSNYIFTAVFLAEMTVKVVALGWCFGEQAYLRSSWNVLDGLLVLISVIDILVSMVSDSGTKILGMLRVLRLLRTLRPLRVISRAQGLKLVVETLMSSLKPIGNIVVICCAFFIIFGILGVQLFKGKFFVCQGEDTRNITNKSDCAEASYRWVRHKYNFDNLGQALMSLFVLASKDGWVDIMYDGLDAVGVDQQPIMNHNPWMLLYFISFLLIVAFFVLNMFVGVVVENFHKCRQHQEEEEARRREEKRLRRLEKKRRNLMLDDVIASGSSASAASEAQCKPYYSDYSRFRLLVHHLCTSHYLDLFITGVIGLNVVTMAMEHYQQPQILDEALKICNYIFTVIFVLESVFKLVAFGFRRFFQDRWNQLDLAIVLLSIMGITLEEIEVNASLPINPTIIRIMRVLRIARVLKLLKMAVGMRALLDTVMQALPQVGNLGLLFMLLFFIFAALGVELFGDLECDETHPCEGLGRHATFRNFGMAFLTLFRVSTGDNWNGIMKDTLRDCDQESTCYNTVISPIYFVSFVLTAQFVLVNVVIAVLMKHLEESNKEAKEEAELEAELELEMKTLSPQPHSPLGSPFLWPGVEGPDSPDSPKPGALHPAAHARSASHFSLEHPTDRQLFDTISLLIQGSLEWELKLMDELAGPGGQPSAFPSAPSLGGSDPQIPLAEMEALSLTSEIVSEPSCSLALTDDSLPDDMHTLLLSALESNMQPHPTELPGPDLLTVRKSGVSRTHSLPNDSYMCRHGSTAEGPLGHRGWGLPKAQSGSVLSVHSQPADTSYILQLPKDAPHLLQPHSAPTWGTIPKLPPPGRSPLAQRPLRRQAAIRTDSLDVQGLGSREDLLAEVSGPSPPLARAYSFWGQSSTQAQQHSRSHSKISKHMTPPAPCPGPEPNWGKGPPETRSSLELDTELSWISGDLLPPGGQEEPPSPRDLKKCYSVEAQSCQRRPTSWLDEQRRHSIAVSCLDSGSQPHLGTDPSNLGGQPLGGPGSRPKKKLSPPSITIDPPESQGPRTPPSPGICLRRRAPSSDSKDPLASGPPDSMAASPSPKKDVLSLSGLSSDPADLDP

**Q.** Which “Selectivity Index (HR IC50/alt-NHEJ IC50)” value (alt-NHEJ [1]) does the source give for Cn1ncc(Cl)c1-c1cc(C(=O)N[C@H](CN)Cc2cccc(F)c2)sc1Cl [Afuresertib] here?
**A.** Its value is 7.43.

**Q.** What about the IC50 (EJ-DR U2OS cells; Homo sapiens, U2OS) of the same compound?
**A.** The IC50 was 14.2 ± 2.32 µM.

**Q.** And the IC50 (HR; Homo sapiens)?
**A.** Its IC50 is 4.53 ± 5.75 µM.

**Q.** What about the IC50 (alt-NHEJ [2]; [6]) of the same compound?
**A.** The IC50 was 0.61 ± 0.46 µM.

**Q.** For CC(C)C1c2ccc(F)cc2CCC1(O)CCN1CC(Oc2ccc(Cl)cn2)CC1CO (centres unmarked) [YU252377], which IC50 (T type Cav 3.3) is on record?
**A.** Its IC50 is 8.2 µM.

**Q.** And the IC50 (T type Cav 3.2)?
**A.** Its IC50 is 5.6 µM.

**Q.** And the “brain exposure” value [3]?
**A.** Its value is “did not achieve detectable brain exposure”.

**Q.** What about the IC50 at 96 h ([4]; Table 1, read-out: Cytotoxicity IC50) of the same compound?
**A.** The IC50 at 96 h was 14.8 µM.

**Q.** And the IC50 (L type Cav 1.2)?
**A.** The IC50 was 6.3 µM.

**Q.** And the IC50 (T type Cav 3.1)?
**A.** Its IC50 is 5.3 µM.

**Q.** And the IC50 (Human hERG (Kv11.1); patch clamp, CHO-K1 cells)?
**A.** Its IC50 is 6.43 µM.

**Q.** And the “SIhERG (hERG IC50/alt-NHEJ IC50), called fold reduction in hERG potency” value (Human hERG (Kv11.1); ratio)?
**A.** Its value is 4.20.

**Q.** What about the IC50 (HR; Homo sapiens) of the same compound?
**A.** Its IC50 is > 60 µM.

**Q.** What about the IC50 (alt-NHEJ [2]; [7]) of the same compound?
**A.** The IC50 was 1.53 µM.

**Q.** What about the IC50 (alt-NHEJ [2]; Homo sapiens, read-out: nc-EJ IC50) of the same compound?
**A.** Its IC50 is 1.5 µM.

**Q.** And the half-life ([5]; female, athymic nude, mouse, plasma, po, 30 mg/kg)?
**A.** The half-life was 1.81 h.

**Q.** And the Cmax ([5]; female, athymic nude, mouse, plasma, po, 30 mg/kg, Maximum concentration (Cmax), oral 30 mg/kg, female athymic nude mice, YU252222 given as methyl ester prodrug)?
**A.** The Cmax was 68.9 ng/mL.

**Q.** What about the “% AUC Extrapolation” value [5, 8] of the same compound?
**A.** The value was 1.1%.

**Q.** And the “AUC(0-x)/Dose” value [5, 8]?
**A.** Its value is 5.83 ng·h/mL/mg/kg.

**Q.** And the Cmax/Dose [5, 8]?
**A.** The Cmax/Dose was 2.30 ng/mL/mg/kg.

**Q.** What about the “Time at which Cmax was observed (tmax)” value [5, 8] of the same compound?
**A.** Its value is 1.0 h.

**Q.** What about the “Area under concentration vs time curve (AUC) (0-x)” value ([5]; oral 30 mg/kg, female athymic nude mice, YU252222 given as methyl ester prodrug) of the same compound?
**A.** Its value is 175 ng·h/mL.

**Q.** And the “Maximum concentration (Cmax)” value ([5]; oral 30 mg/kg, female athymic nude mice, YU252222 given as methyl ester prodrug, 30 mg/kg)?
**A.** Its value is < 100 ng/mL.

**Q.** For NC(=O)Nc1cc(-c2cccc(F)c2)sc1C(=O)N[C@H]1CCCNC1 [AZD 7762], which IC50 (EJ-DR U2OS cells; Homo sapiens, U2OS) is on record?
**A.** The IC50 was 0.13 ± 0.01 µM.

**Q.** And the IC50 (HR; Homo sapiens)?
**A.** Its IC50 is > 60 µM.

**Q.** What about the IC50 (alt-NHEJ [2]; [6]) of the same compound?
**A.** The IC50 was > 60 µM.

**Q.** What does the source list for CO[C@H]1C[C@@H]2CC[C@@H](C)[C@@](O)(O2)C(=O)C(=O)N2CCCC[C@H]2C(=O)O[C@H]([C@H](C)C[C@@H]2CC[C@@H](OCCO)[C@H](OC)C2)CC(=O)[C@H](C)/C=C(\C)[C@@H](O)[C@@H](OC)C(=O)[C@H](C)C[C@H](C)/C=C/C=C/C=C/1C [Everolimus]?
**A.** IC50 (EJ-DR U2OS cells; Homo sapiens, U2OS): 3.17 ± 2.05 µM; IC50 (HR; Homo sapiens): 0.07 ± 0.03 µM; IC50 (alt-NHEJ [2]; [6]): 0.05 ± 0.03 µM; Selectivity Index (HR IC50/alt-NHEJ IC50) (alt-NHEJ [2]): 1.40

**Q.** Which “effect on alt-NHEJ and HR in the EJ-DR assay” value (alt-NHEJ [2]; EJ-DR U2OS cells) does the source give for O=c1cc(N2CCOCC2)oc2c(-c3cccc4c3sc3ccccc34)cccc12 [NU 4771] here?
**A.** Its value is “increase in both alt-NHEJ and HR”.

**Q.** For CCc1cncnc1N1CCN(Cc2nc3ccc(C(F)(F)F)cc3[nH]2)CC1 [PF-04708671], which IC50 (EJ-DR U2OS cells) is on record?
**A.** The IC50 was 36.9 ± 3.82 µM.

**Q.** And the IC50 (HR; EJ-DR assay, Supplementary Table 2, mean ± SEM of four technical replicates)?
**A.** The IC50 was > 60 µM.

**Q.** What about the IC50 (alt-NHEJ [2]; read-out: alt-NHEJ IC50, EJ-DR assay, Supplementary Table 2, mean ± SEM of four technical replicates) of the same compound?
**A.** The IC50 was > 60 µM.

**Q.** Which IC50 at 96 h ([4]; figures, read-out: CT IC50 (cytotoxicity)) does the source give for CC(C)[C@H]1c2ccc(F)cc2CC[C@]1(O)CCN(C)CC(O)c1ccccc1 (some centres unmarked) [YU241553] here?
**A.** Its IC50 at 96 h is 24 µM.

**Q.** What about the IC50 (alt-NHEJ [2]; [7]) of the same compound?
**A.** Its IC50 is 8.87 µM.

**Q.** What about the “selectivity index SI (CT IC50/alt-NHEJ IC50)” value (alt-NHEJ [2]) of the same compound?
**A.** Its value is 2.71.

**Q.** With NC1(c2ccc(-c3nc4ccn5c(=O)[nH]nc5c4cc3-c3ccccc3)cc2)CCC1 [MK-2206] as the compound, how does the IC50 (EJ-DR U2OS cells; Homo sapiens, U2OS) read?
**A.** Its IC50 is 16.5 ± 2.56 µM.

**Q.** What about the IC50 (HR; Homo sapiens) of the same compound?
**A.** The IC50 was 4.4 ± 5.17 µM.

**Q.** What about the IC50 (alt-NHEJ [2]; [6]) of the same compound?
**A.** The IC50 was 0.66 ± 0.31 µM.

**Q.** What about the “Selectivity Index (HR IC50/alt-NHEJ IC50)” value (alt-NHEJ [2]) of the same compound?
**A.** Its value is 6.67.

**Q.** What does the source list for COc1ccc(-c2ccc3c(N4CCOC[C@@H]4C)nc(N4CCOC[C@@H]4C)nc3n2)cc1CO [AZD 8055]?
**A.** IC50 (EJ-DR U2OS cells; Homo sapiens, U2OS): 0.89 ± 0.28 µM; IC50 (HR; Homo sapiens): 2.85 ± 1.04 µM; IC50 (alt-NHEJ [2]; [6]): 0.05 ± 0.01 µM; Selectivity Index (HR IC50/alt-NHEJ IC50) (alt-NHEJ [2]): 57.00

**Q.** For O=C(NC(CCN1CC(Oc2nccc3ccccc23)CC1CO)c1ccc(F)cc1)C1CCC(F)(F)CC1 (centres unmarked) [YU253106], which IC50 (CYP2D6) is on record?
**A.** The IC50 was 2.3 µM.

**Q.** What about the selectivity ratio (CYP2D6; human, ratio, read-out: SICYP 2D6 (selectivity index of CYP, CYP2D6 IC50 to alt-NHEJ IC50), called fold decrease in CYP2D6 inhibition) of the same compound?
**A.** Its selectivity ratio is 1.64.

**Q.** What about the IC50 (CYP3A4) of the same compound?
**A.** The IC50 was 14.5 µM.

**Q.** And the selectivity ratio (CYP3A4; human, ratio, read-out: SICYP 3A4 (selectivity index of CYP, CYP3A4 IC50 to alt-NHEJ IC50), called fold decrease in CYP3A4 inhibition)?
**A.** Its selectivity ratio is 10.3.

**Q.** What about the IC50 (alt-NHEJ [2]; [7]) of the same compound?
**A.** Its IC50 is 1.4 µM.

**Q.** Which IC50 (HR; EJ-DR U2OS cells, text and figures) does the source give for C[C@H]1COCCN1c1cc(C2(S(=O)(=O)C3CC3)CC2)nc(-c2ccc(NC(=S)NCCO)cc2)n1 [mTORC1/2 inhibitor, AZD 3147] here?
**A.** Its IC50 is 7.18 µM.

**Q.** And the “selectivity index SI (CT IC50/alt-NHEJ IC50)” value (alt-NHEJ [2])?
**A.** Its value is 7.22.

**Q.** What about the IC50 (alt-NHEJ [2]; read-out: alt-NHEJ IC50, EJ-DR U2OS cells, text and figures) of the same compound?
**A.** The IC50 was 0.09 µM.
